Measurements published in publication PMC11802874, “The hypolipidemic effect of MI-883, the combined CAR agonist/ PXR antagonist, in diet-induced hypercholesterolemia model” (Nature Communications, 2025).
“And” between values parts separate entries of the source, which are not always exact repeats. Equal entries are not always repeated.

What was measured:
[1] = biological target: PPARδ/β (Homo sapiens, UniProt Q03181); experiment: Luciferase reporter gene assay PPARδ/β, HepG2
Source text: (§1) The luciferase reporter gene assays for FXR, LXRα, LXRβ, THα, GRα, PPARα, PPARδ/β, PPARγ, AhR, VD, ERα, ERβ and mouse Car are described in our recent paper[19]
(§2) Gal4-LBD constructs of tested nuclear receptors have been used together with pGL4.31[luc2P/GAL4UAS/Hygro] luciferase reporter construct and pRL-TK Renilla expression vector (both from Promega, Hercules, USA) in HepG2 cells transfected with Lipofectamine 2000 or 3000 reagents. For GRα and FXR receptors, full-length expression vectors have been used with pGRE-luc or pFXRE-luc luciferase constructs. For the aryl hydrocarbon receptor (AhR), p1A1-luc construct was used with only pRL-TK vector for transfection normalization. A dual reporter assay (Promega, Hercules, USA) was used to analyze both firefly and Renilla luciferase activities.
(§3) Gal4-LBD constructs of tested nuclear receptors have been used together with pGL5-luc luciferase reporter construct and pRL-TK Renilla expression vector in HepG2 cells transfected with Lipofectamine 2000 or 3000 reagents. For GRα and FXR receptors, full-length expression vectors have been used with pGRE-luc or pFXRE-luc luciferase constructs. For the aryl hydrocarbon receptor (AhR), p1A1-luc construct was used with only pRL-TK vector for transfection normalization. […] Bars represent means±S.D. (n=3).

[2] = biological target: PPARα (Homo sapiens, UniProt Q07869); experiment: Luciferase reporter gene assay PPARα, HepG2
PPARα, sequence (Q07869 239-466 limits assumed): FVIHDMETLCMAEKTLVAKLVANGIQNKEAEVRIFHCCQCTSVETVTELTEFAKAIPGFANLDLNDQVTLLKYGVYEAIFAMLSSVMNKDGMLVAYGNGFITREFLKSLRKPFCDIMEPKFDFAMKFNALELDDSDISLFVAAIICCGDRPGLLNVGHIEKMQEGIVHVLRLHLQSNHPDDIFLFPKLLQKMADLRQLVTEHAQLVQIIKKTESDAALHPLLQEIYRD
Source text: as §1, §2, §3

[3] = test system: primary human hepatocytes (PHH); experiment: RT-qPCR mRNA expression in 2D primary human hepatocytes; conditions: for CYP2B6 mRNA, RT-qPCR, PHH (Fig. 1g), replicates: ctrl = 1
Source text: The cells were cultivated as 2D monolayers according to the manufacturer’s protocol.
(§4) RT-qPCR was used to examine gene expression in 2D and 3D PHH, HepaRG cells, or in mouse liver or intestine (ileum) samples as we have described before[60]–[62].

[4] = test system: HepaRG cells; experiment: RT-qPCR mRNA expression in differentiated HepaRG cells
Source text: HepaRG cells from Biopredic (Rennes, France) were cultivated and differentiated on the 12-well plates. […] Several batches of HepaRG KO CAR (CAR Knockout HepaRG™ Cells, MTOX1012-1VL, RRID:CVCL_B6AA) and PXR Knockout HepaRG™ Cells, MTOX1011-1VL, RRID:CVCL_B6AS) cells have been obtained from Sigma-Aldrich/Merck (Darmstadt, Germany) and cultivated according to the provider’s protocols. […] Experiments with HepaRG KO PXR and HepaRG KO CAR cells have been performed in duplicates at least in two independent experiments.
as §4
All qRT-qPCR experiments including Trizol reagent (Life Technologies) total RNA isolation, reverse-transcription using a random hexaprimer, and the MMLV Reverse Transcriptase Kit (ThermoFisher Scientific) we have described before^19. qPCR was performed using TaqMan Fast Advanced Master Mix with TaqMan probes (ThermoFisher Scientific). […] The delta-delta method was used for gene expression quantification normalized to at least two reference genes. Three technical replicates were used for each reaction considering the MIQE guidelines. Data are presented as fold induction to vehicle-treated cells/animals.

[5] = MI-883 1 μM, 24 h, one value per donor
[6] = single agent 5 μM: MI-883, CITCO (5 μM) alone

PPARδ/β, sequence (Q03181 211-439 limits assumed): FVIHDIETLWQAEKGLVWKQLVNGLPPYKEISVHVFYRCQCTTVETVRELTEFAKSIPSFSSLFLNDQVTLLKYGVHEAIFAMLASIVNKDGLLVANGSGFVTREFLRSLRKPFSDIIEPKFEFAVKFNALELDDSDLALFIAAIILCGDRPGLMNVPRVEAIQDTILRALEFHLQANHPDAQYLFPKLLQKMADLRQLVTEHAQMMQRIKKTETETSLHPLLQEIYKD

## NC(=O)c1cc(Cn2cc(-c3c(-c4ccc(Cl)cc4)nc4cc(F)ccn34)nn2)ccc1Cl [MI-883, 2-chloro-5-((4-(2-(4-chlorophenyl)-7-fluoroimidazo[1,2-a]pyridin-3-yl)-1H-1,2,3-triazol-1-yl)methyl)benzamide]
[1]
  NRs assays: PPARd (relative to ctrl, replicates): 1.06 and 1.19 and 1.12
[2]
  NRs assays: PPARa (relative to ctrl, replicates): 0.75 and 0.92 and 1.14
[3]; 1 mM
  CYP2B6 mRNA, RT-qPCR, PHH (Fig. 1g), replicates: 6.40 and 7.90 and 6.20
[3]; 5mM
  CYP2B6 mRNA, RT-qPCR, PHH (Fig. 1g), replicates: 11.50 and 14.10 and 10.70
[3]; MI-883 1 μM + CITCO (5 μM)
  CYP2B6 mRNA in PHH 2 donors (Fig. 3c): 18.7857 and 11.1982
  CYP3A4 mRNA in PHH 2 donors (Fig. 3c): 1.145 and 0.8997
[3]; MI-883 1 μM + Rif (10 μM)
  CYP2B6 mRNA in PHH 2 donors (Fig. 3c): 16.0019 and 18.4588
[3]; [5]
  CYP2B6 mRNA in PHH 2 donors (Fig. 3c): 9.7833 and 10.0129
  CYP3A4 mRNA in PHH 2 donors (Fig. 3c): 1.152 and 1.035
[3]; MI-883 5 μM + CITCO (5 μM)
  CYP2B6 mRNA in PHH 2 donors (Fig. 3c): 4.985 and 8.159
[3]; MI-883 5 μM + Rif (10 μM)
  CYP2B6 mRNA in PHH 2 donors (Fig. 3c): 9.78 and 14.5843
[3]; MI-883 10 μM + CITCO (5 μM)
  CYP2B6 mRNA in PHH 2 donors (Fig. 3c): 1.856 and 2.089
  CYP3A4 mRNA in PHH 2 donors (Fig. 3c): 0.35 and 0.4582
[3]; MI-883 10 μM + Rif (10 μM)
  CYP2B6 mRNA in PHH 2 donors (Fig. 3c): 2.674 and 5.134
  CYP3A4 mRNA in PHH 2 donors (Fig. 3c): 2.14 and 3.421
[3]; [6]
  CYP2B6 mRNA in PHH 2 donors (Fig. 3c): 17.2158 and 12.1241
  CYP3A4 mRNA in PHH 2 donors (Fig. 3c): 0.6604 and 0.7133
[3]; single agent 10 μM: MI-883, Rif (10 μM) alone
  CYP3A4 mRNA in PHH 2 donors (Fig. 3c): 0.3215 and 0.4561
[4]
  INSIG1 mRNA in HepaRG cells: significantly upregulated
  LDLR mRNA in HepaRG cells: significant PXR-dependent upregulation
  SREBF1 mRNA expression in HepaRG / KO cells: CAR-dependent downregulation
  SREBF2 mRNA expression in HepaRG cells: no significant effect
[4]; MI-883 1 μM
  HMGCR expression relative to control (replicates): 0.8473 and 0.6697 and 1.095 and 1.161 and 1.262 and 0.6816
  HMGCS2 expression relative to control (replicates): 0.9842 and 0.7188 and 1.1212 and 1.322
  PCSK9 expression relative to control (replicates): 0.9984 and 0.8995 and 1.064 and 1.124
[4]; MI-883 1 μM + Rif (5 μM)
  HMGCR expression relative to control (replicates): 1.453 and 0.9465 and 0.9544 and 1.191 and 1.542 and 0.8007
  HMGCS2 expression relative to control (replicates): 0.681 and 1.013 and 0.6433 and 0.4816
  PCSK9 expression relative to control (replicates): 0.8085 and 0.8006 and 1.133 and 0.9198
[4]; MI-883 5 μM
  HMGCR expression relative to control (replicates): 1.295 and 1.166 and 1.377 and 1.27 and 0.8404
  HMGCS2 expression relative to control (replicates): 0.5911 and 1.022
  PCSK9 expression relative to control (replicates): 0.6066 and 1.012
[4]; MI-883 5 μM + Rif (5 μM)
  HMGCR expression relative to control (replicates): 1.005 and 1.538 and 1.592 and 1.152 and 1.312
  HMGCS2 expression relative to control (replicates): 0.8846 and 0.5305
  PCSK9 expression relative to control (replicates): 1.035 and 0.636
[4]; MI-883 10 μM
  HMGCR expression relative to control (replicates): 1.683 and 0.9974 and 1.042 and 1.481
  HMGCS2 expression relative to control (replicates): 0.4009 and 0.6268 and 0.831 and 0.8846
  PCSK9 expression relative to control (replicates): 0.6175 and 0.9465 and 1.014 and 0.9985
[4]; MI-883 10 μM + Rif (5 μM)
  HMGCR expression relative to control (replicates): 1.336 and 1.4868 and 1.027 and 1.993
  HMGCS2 expression relative to control (replicates): 0.9594 and 1.125 and 0.477 and 0.8873
  PCSK9 expression relative to control (replicates): 1.314 and 0.9884 and 1.015 and 0.8211
[4]; MI-883 20 μM
  HMGCR expression relative to control (replicates): 1.186 and 1.442 and 1.1738
  HMGCS2 expression relative to control (replicates): 0.7901 and 0.8336 and 1.102
  PCSK9 expression relative to control (replicates): 0.9308 and 1.156 and 1.11
[4]; MI-883 20 μM + Rif (5 μM)
  HMGCR expression relative to control (replicates): 0.8382 and 1.516 and 1.756
  HMGCS2 expression relative to control (replicates): 1.0412 and 1.1415 and 0.9223
  PCSK9 expression relative to control (replicates): 1.334 and 1.4007 and 1.046
[4]; MI-883 1
  CYP7A1 mRNA fold (Fig. 3f,g sheet), replicates: 0.5746 and 0.6713 and 0.8972 and 0.7445
  INSIG1 mRNA fold (Fig. 3f,g sheet), replicates: 1.005 (2×) and 0.8339
  LDLR mRNA fold (Fig. 3f,g sheet), replicates: 1.161 and 1.262 and 0.9041 and 0.8572
